Results as given in ChEMBL document CHEMBL1145274, “The evaluation of 2,8-disubstituted benzoxazinone derivatives as anti-inflammatory and anti-platelet aggregation agents” (Bioorg Med Chem Lett, 2005).
pIC50: −log10 of the molar value.

How the values were obtained:
Assay type in all cases: functional, organism-based
[1] = organism: Homo sapiens; assay: Inhibitory concentration for anti-platelet aggregation induced by platelet activating factor at 2 ng/mL concentration
[2] = organism: Homo sapiens; assay: Inhibitory concentration for anti-platelet aggregation induced by arachidonic acid at 100 uM concentration
[3] = organism: Homo sapiens; assay: Inhibitory concentration for anti-platelet aggregation induced by collagen at 10 ug/mL concentration
[4] = organism: Homo sapiens; assay: Inhibitory concentration against neutrophil elastase release induced by FMLP (formyl-Met-Leu-Phe)
[5] = organism: Homo sapiens; assay: Inhibitory concentration for anti-platelet aggregation induced by thrombin at 0.1 U/mL concentration
[6] = organism: Homo sapiens; assay: Inhibitory concentration against superoxide anion (O2-) generation in human neutrophils induced by FMLP (formyl-Met-Leu-Phe) and […](phorbol myristate acetate)

Row | SMILES | pIC50 [1] | pIC50 [2] | pIC50 [3] | pIC50 [4] | pIC50 [5] | pIC50 [6]
1 | CCc1nc2c(OC)cccc2c(=O)o1 | < 4.40 | < 4.00 | < 4.00 | 4.00 | < 4.40 | 4.00
2 | COc1cccc2c(=O)oc(-c3ccccc3)nc12 | < 4.00 | 4.33 | 4.47 | < 4.40 | 4.32 | < 4.40
3 | O=c1oc(-c2ccccc2Cl)nc2c(Cl)cccc12 | 4.16 | 5.21 | 4.52 | 5.72 | 5.18 | 5.06
4 | CCCCc1nc2c(OC)cccc2c(=O)o1 | < 4.00 | < 4.00 | < 4.00 | < 4.40 | < 4.00 | < 4.40
5 | CC(=O)Oc1ccccc1C(=O)O [ASPIRIN] | < 4.00 | 4.46 | 4.46 | – | < 4.00 | –
6 | COc1cccc2c(=O)oc(C)nc12 | < 4.00 | < 4.00 | < 4.00 | < 4.40 | < 4.00 | < 4.40
7 | O=c1oc(-c2ccccc2F)nc2c(Cl)cccc12 | 4.06 | 4.90 | 4.31 | 5.22 | 4.83 | < 4.40
8 | O=c1oc(-c2ccccc2Br)nc2c(Cl)cccc12 | 4.06 | 4.99 | 4.33 | 5.77 | 5.15 | 5.18
9 | c1ccc2c(c1)[I+]c1ccccc1-2 [DIPHENYLENEIODONIUM] | – | – | – | – | – | 6.34
10 | COc1cccc2c(=O)oc(-c3ccc(Cl)cc3)nc12 | < 4.00 | < 4.00 | < 4.00 | – | < 4.00 | < 4.40
11 | Cc1ccccc1-c1nc2c(Cl)cccc2c(=O)o1 | 4.04 | 4.86 | 4.20 | < 4.40 | 4.44 | 4.76
12 | COc1cccc2c(=O)oc(-c3ccc(Br)cc3)nc12 | < 4.00 | < 4.00 | < 4.00 | – | < 4.00 | < 4.40

The remaining lines, values ahead:

Row | pIC50 [1] | pIC50 [2] | pIC50 [3] | pIC50 [4] | pIC50 [5] | pIC50 [6] | SMILES
13 | < 4.00 | 4.44 | 4.26 | 5.14 | < 4.00 | 4.64 | COc1ccccc1-c1nc2c(C)cccc2c(=O)o1
14 | < 4.00 | 4.93 | 4.45 | – | 5.16 | 4.83 | COc1cccc2c(=O)oc(-c3ccccc3Cl)nc12
15 | 4.05 | 5.24 | 4.30 | < 4.40 | 4.72 | 4.52 | Cc1cccc2c(=O)oc(-c3ccccc3Br)nc12
16 | 4.15 | 4.60 | 4.35 | 5.72 | 4.83 | 5.00 | COc1ccccc1-c1nc2c(Cl)cccc2c(=O)o1
17 | < 4.00 | < 4.00 | < 4.00 | 5.80 | < 4.00 | 4.85 | COc1ccccc1-c1nc2c(OC)cccc2c(=O)o1
18 | < 4.00 | 5.37 | 4.90 | < 4.40 | 4.92 | 4.52 | Cc1cccc2c(=O)oc(-c3ccccc3Cl)nc12
19 | < 4.00 | 4.89 | 4.68 | – | 5.36 | 4.78 | COc1cccc2c(=O)oc(-c3ccccc3Br)nc12
20 | < 4.00 | 4.71 | < 4.00 | < 4.40 | < 4.00 | 4.63 | Cc1ccccc1-c1nc2c(C)cccc2c(=O)o1
21 | < 4.00 | 5.17 | 4.92 | < 4.40 | 4.46 | 4.97 | Cc1cccc2c(=O)oc(-c3ccccc3F)nc12
22 | < 4.00 | 5.10 | 4.40 | – | 5.14 | 5.01 | COc1cccc2c(=O)oc(-c3ccccc3F)nc12
23 | < 4.00 | 5.08 | 4.46 | 4.98 | 4.17 | 4.94 | COc1cccc2c(=O)oc(-c3ccccc3C)nc12
